The values that follow come from patent publication US11566002B2, “Substituted tetrahydrocyclopenta[C]pyrroles, substituted dihydropyrrolizines, analogues thereof, and methods using same” (priority 2018, dated 2023).

For one assay, the system named is HBV rcDNA. Nature of the assay: HepDE19 assay with bDNA quantitation of HBV rcDNA. The class given is cell-based, hepatitis B virus. Particulars: HepDE19 cells, Tet-free medium, 7 day-incubation, rcDNA measured by Quantigene 2.0 bDNA assay, top concentration 25 μM; read-out: DE-19 bDNA EC50. In short, it runs like this:
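HepDE19 cells (50,000/well) switched to Tet-free medium, then treated 7 days at 37° C with compounds from 25 μM (½-log, 8-point, duplicate; 0.5% DMSO). rcDNA quantified by bDNA with HBV probes; EC50/EC90 by 4-parameter fit. CC50 from CTG ATP on 5,000 cells/well after 4 days.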
For `Cn1cc(COC(=O)NC2CCc3c2cn(C)c3C(=O)Nc2ccc(F)c(Cl)c2)nn1` (single isomer, unassigned) [Compound 117, (1-Methyl-1H-1,2,3-triazol-4-yl)methyl (1-((3-chloro-4-fluorophenyl)carbamoyl)-2-methyl-2,4,5,6-tetrahydrocyclopenta[c]pyrrol-4-yl)carbamate], the EC50 was found to be 6.1 µM.
Regarding `Cn1cc2c(c1C(=O)Nc1ccc(F)c(Cl)c1)CCC2NC(=O)OC[C@@H]1CCC(=O)N1` (single isomer, unassigned) [Compound 118], the EC50 came out at 0.16 µM.
Same read-out and setting: the value for `Cn1cc2c(c1C(=O)Nc1ccc(F)c(Cl)c1)CCC2NC(=O)OC[C@@H]1CCC(=O)N1` (single isomer, unassigned) [Compound 119] was 1.9 µM; that for `Cn1cc2c(c1C(=O)Nc1ccc(F)c(Cl)c1)CCC2NC(=O)OC[C@H]1CCC(=O)N1` (single isomer, unassigned) [Compound 120] was 0.21 µM; that for `Cn1cc2c(c1C(=O)Nc1ccc(F)c(Cl)c1)CCC2NC(=O)OC[C@H]1CCC(=O)N1` (single isomer, unassigned) [Compound 121] was 4 µM.
Same read-out and setting: the same measure for `Cn1c(C(=O)Nc2ccc(F)c(Cl)c2)c2c(c1C(F)(F)F)C(NC(=O)OCc1nc[nH]n1)CC2` (single isomer, unassigned) [Compound 126, (1H-1,2,4-Triazol-3-yl)methyl (1-((3-chloro-4-fluorophenyl)carbamoyl)-2-methyl-3-(trifluoromethyl)-2,4,5,6-tetrahydrocyclopenta[c]pyrrol-4-yl)carbamate]: 8.7 µM.
Still for that read-out and setting: the same measure for `Cn1c(C(=O)Nc2ccc(F)c(Cl)c2)c2c(c1C(F)(F)F)C(NC(=O)OCc1nc[nH]n1)CC2` (single isomer, unassigned) [Compound 127, (1H-1,2,4-Triazol-3-yl)methyl (1-((3-chloro-4-fluorophenyl)carbamoyl)-2-methyl-3-(trifluoromethyl)-2,4,5,6-tetrahydrocyclopenta[c]pyrrol-4-yl)carbamate]: 0.44 µM; for `Cn1ncc(COC(=O)NC2CCc3c2cn(C)c3C(=O)Nc2ccc(F)c(Cl)c2)n1` (single isomer, unassigned) [Compound 128, (2-Methyl-2H-1,2,3-triazol-4-yl)methyl (1-((3-chloro-4-fluorophenyl)carbamoyl)-2-methyl-2,4,5,6-tetrahydrocyclopenta[c]pyrrol-4-yl)carbamate]: 1.7 µM.
For the compound `Cn1ncc(COC(=O)NC2CCc3c2cn(C)c3C(=O)Nc2ccc(F)c(Cl)c2)n1` (single isomer, unassigned) [Compound 129, (2-Methyl-2H-1,2,3-triazol-4-yl)methyl (1-((3-chloro-4-fluorophenyl)carbamoyl)-2-methyl-2,4,5,6-tetrahydrocyclopenta[c]pyrrol-4-yl)carbamate], the EC50 amounted to 0.04 µM.
Same read-out and setting: the value for `Cc1c2c(c(C(=O)Nc3ccc(F)c(Cl)c3)n1C)CCC2NC(=O)OCc1c[nH]nn1` (single isomer, unassigned) [Compound 130, (1H-1,2,3-Triazol-4-yl)methyl (1-((3-chloro-4-fluorophenyl)carbamoyl)-2,3-dimethyl-2,4,5,6-tetrahydrocyclopenta[c]pyrrol-4-yl)carbamate] was 9 µM; that for `Cc1c2c(c(C(=O)Nc3ccc(F)c(Cl)c3)n1C)CCC2NC(=O)OCc1c[nH]nn1` (single isomer, unassigned) [Compound 131, (1H-1,2,3-Triazol-4-yl)methyl (1-((3-chloro-4-fluorophenyl)carbamoyl)-2,3-dimethyl-2,4,5,6-tetrahydrocyclopenta[c]pyrrol-4-yl)carbamate] was 1.7 µM; that for `Cn1c(C(=O)Nc2ccc(F)c(Cl)c2)c2c(c1C(F)(F)F)C(NC(=O)OCc1cn[nH]n1)CC2` (single isomer, unassigned) [Compound 132, (2H-1,2,3-Triazol-4-yl)methyl (1-((3-chloro-4-fluorophenyl)carbamoyl)-2-methyl-3-(trifluoromethyl)-2,4,5,6-tetrahydrocyclopenta[c]pyrrol-4-yl)carbamate] was 13 µM.
Take `Cn1c(C(=O)Nc2ccc(F)c(Cl)c2)c2c(c1C(F)(F)F)C(NC(=O)OCc1cn[nH]n1)CC2` (single isomer, unassigned) [Compound 133, (2H-1,2,3-Triazol-4-yl)methyl (1-((3-chloro-4-fluorophenyl)carbamoyl)-2-methyl-3-(trifluoromethyl)-2,4,5,6-tetrahydrocyclopenta[c]pyrrol-4-yl)carbamate]: the EC50 stood at 0.43 µM.
The same measure, in the same setting: the value for `Cn1c(Cl)c2c(c1C(=O)Nc1ccc(F)c(Cl)c1)CCCC2NC(=O)OCc1nc[nH]n1` (single isomer, unassigned) [Compound 134, (1H-1,2,4-Triazol-3-yl)methyl (3-chloro-1-((3-chloro-4-fluorophenyl)carbamoyl)-2-methyl-4,5,6,7-tetrahydro-2H-isoindol-4-yl)carbamate] was 1.9 µM.
Consider `Cn1c(Cl)c2c(c1C(=O)Nc1ccc(F)c(Cl)c1)CCCC2NC(=O)OCc1nc[nH]n1` (single isomer, unassigned) [Compound 135, (1H-1,2,4-Triazol-3-yl)methyl (3-chloro-1-((3-chloro-4-fluorophenyl)carbamoyl)-2-methyl-4,5,6,7-tetrahydro-2H-isoindol-4-yl)carbamate], for which the EC50 was 0.18 µM.
On the same count and under the same terms, the value for `Cn1c(Cl)c2c(c1C(=O)Nc1ccc(F)c(Cl)c1)CCCC2NC(=O)OCc1cn[nH]n1` (single isomer, unassigned) [Compound 136, (2H-1,2,3-Triazol-4-yl)methyl (3-chloro-1-((3-chloro-4-fluorophenyl)carbamoyl)-2-methyl-4,5,6,7-tetrahydro-2H-isoindol-4-yl)carbamate] was 1.2 µM.
On the same count and under the same terms, the same measure for `Cn1c(Cl)c2c(c1C(=O)Nc1ccc(F)c(Cl)c1)CCCC2NC(=O)OCc1cn[nH]n1` (single isomer, unassigned) [Compound 137, (2H-1,2,3-Triazol-4-yl)methyl (3-chloro-1-((3-chloro-4-fluorophenyl)carbamoyl)-2-methyl-4,5,6,7-tetrahydro-2H-isoindol-4-yl)carbamate]: 0.16 µM; for `Cc1n[nH]nc1COC(=O)NC1CCc2c1cn(C)c2C(=O)Nc1ccc(F)c(Cl)c1` (single isomer, unassigned) [Compound 138, (5-Methyl-2H-1,2,3-triazol-4-yl)methyl (1-((3-chloro-4-fluorophenyl)carbamoyl)-2-methyl-2,4,5,6-tetrahydrocyclopenta[c]pyrrol-4-yl)carbamate]: 0.86 µM.
In the case of `Cc1n[nH]nc1COC(=O)NC1CCc2c1cn(C)c2C(=O)Nc1ccc(F)c(Cl)c1` (single isomer, unassigned) [Compound 139, (5-Methyl-2H-1,2,3-triazol-4-yl)methyl (1-((3-chloro-4-fluorophenyl)carbamoyl)-2-methyl-2,4,5,6-tetrahydrocyclopenta[c]pyrrol-4-yl)carbamate], the EC50 came to 3.6 µM.
Still for that read-out and setting: the value for `Cn1cc2c(c1C(=O)Nc1ccc(F)c(Cl)c1)CCC2NC(=O)OCc1n[nH]nc1C1CC1` (single isomer, unassigned) [Compound 146, (5-Cyclopropyl-2H-1,2,3-triazol-4-yl)methyl (1-((3-chloro-4-fluorophenyl)carbamoyl)-2-methyl-2,4,5,6-tetrahydrocyclopenta[c]pyrrol-4-yl)carbamate] was 9.3 µM.

Staying with this assay, now noted: Hepatitis B virus, HepDE19, 168 h, HepDE19 cells, Tet-free medium, 7 day-incubation, rcDNA measured by Quantigene 2.0 bDNA assay, top concentration 25 μM; read-out: DE-19 bDNA EC50.
As for `Cn1cc2c(c1C(=O)Nc1ccc(F)c(Cl)c1)CCC2NC(=O)OCc1nnnn1C` (single isomer, unassigned) [Compound 145, (1-Methyl-1H-tetrazol-5-yl)methyl (1-((3-chloro-4-fluorophenyl)carbamoyl)-2-methyl-2,4,5,6-tetrahydrocyclopenta[c]pyrrol-4-yl)carbamate], the EC50 was 2.7 µM.

The same assay, now with this note: Hepatitis B virus, HepDE19, 168 h, read-out: DE-19 bDNA EC50 (μM), HepDE19 cells, Tet-free medium, 7 day-incubation, rcDNA measured by Quantigene 2.0 bDNA assay, top concentration 25 μM.
On to `Cn1c(Br)c2c(c1C(=O)Nc1ccc(F)c(Cl)c1)CCC2NC(=O)OCc1nc[nH]n1` (single isomer, unassigned) [Compound 125, (1H-1,2,4-Triazol-3-yl)methyl(3-bromo-1-((3-chloro-4-fluorophenyl)carbamoyl)-2-methyl-2,4,5,6-tetrahydrocyclopenta[c]pyrrol-4-yl)carbamate], for which the EC50 turned out to be 0.04 µM.

The same assay, now with this note: read-out: DE-19 bDNA EC50; HepDE19 cells, Tet-free medium, 7 day-incubation, rcDNA measured by Quantigene 2.0 bDNA assay, top concentration 25 μM.
On to `CCc1n[nH]nc1COC(=O)NC1CCc2c1cn(C)c2C(=O)Nc1ccc(F)c(Cl)c1` (single isomer, unassigned) [Compound 140, (5-Ethyl-2H-1,2,3-triazol-4-yl)methyl(1-((3-chloro-4-fluorophenyl)carbamoyl)-2-methyl-2,4,5,6-tetrahydrocyclopenta[c]pyrrol-4-yl)carbamate], for which the EC50 amounted to 12 µM.
Still for that read-out and setting: the value for `CCc1n[nH]nc1COC(=O)NC1CCc2c1cn(C)c2C(=O)Nc1ccc(F)c(Cl)c1` (single isomer, unassigned) [Compound 141, (5-Ethyl-2H-1,2,3-triazol-4-yl)methyl(1-((3-chloro-4-fluorophenyl)carbamoyl)-2-methyl-2,4,5,6-tetrahydrocyclopenta[c]pyrrol-4-yl)carbamate] was 1.2 µM; that for `Cn1cc2c(c1C(=O)Nc1ccc(F)c(Cl)c1)CCC2NC(=O)OCc1nnnn1C` (single isomer, unassigned) [Compound 144, (1-Methyl-1H-tetrazol-5-yl)methyl(1-((3-chloro-4-fluorophenyl)carbamoyl)-2-methyl-2,4,5,6-tetrahydrocyclopenta[c]pyrrol-4-yl)carbamate] was 0.06 µM.
